Data on 1 compound can be found in patent US12215354B2, “Differentiation of human embryonic stem cells into single hormonal insulin positive cells” (Janssen Biotech, Inc., priority 2011, dated 2025).

For this test, the system named is human embryonic stem cell line H1. Briefly: Immune staining for insulin, glucagon and somatostatin hormones at end of stage 5 (Example 13). The test is classed as cell-based. Particulars: percentage of the entire hormone count at S5 day 3. As to the method: Cells of the human embryonic stem cell line H1 at various passages (passage 40 to passage 52) were seeded as single cells at a density of 100,000 cells/cm^2 on MATRIGEL™ (1:30 dilution) coated dishes in mTesr™1 media and 10 μM of Y27632. Forty eight hours post seeding, cultures were differentiated into pancreatic endocrine lineage as follows: • a. Stage 1 (Definitive Endoderm (DE)−3 days): Prior to start of DE, the cultures were washed and incubated with incomplete PBS (no Mg or Ca) for 30 seconds followed by addition of the stage 1 media. Human embryonic stem cells cultured as single cells on MATRIGEL™-coated dishes were treated with MCDB-131 medium supplemented with 0.1% fatty acid-free BSA, 0.0012 g/ml sodium bicarbonate, 1× GLUTAMAX™, 5 mM D-Glucose, 100 ng/ml GDF8, 1 μM MCX compound (GSK3B inhibitor) for one day. Cells were then treated with MCDB-131 medium supplemented with 0.1% fatty acid-free BSA, sodium bicarbonate, GLUTAMAX™, extra 5 mM glucose, 100 ng/ml GDF8, and 100 nM MCX compound for day two followed by an additional day in MCDB-131 medium supplemented with 0.1% fatty acid-free BSA, 0.0012 g/ml sodium bicarbonate, 1× GLUTAMAX™, 5 mM Glucose, and 100 ng/ml GDF8. • b. Stage 2 (Primitive gut tube−2 days): Cells were treated with MCDB-131 medium supplemented with 0.1% fatty acid-free BSA, 0.0012 g/ml sodium bicarbonate, 1× GLUTAMAX™, 5 mM D-Glucose, 0.25 mM ascorbic acid, and 25 ng/ml FGF7 and for two days, then • MCDB131supplemented with 1:200 dilution of ITS-X, 2.5 mM Glucose, 1× GLUTAMAX™, 0.0015 g/ml sodium bicarbonate, 2% fatty acid-free BSA, 10 ng/ml Activin A, 25 ng/ml FGF7, 0.25 mM ascorbic acid, 0.25 μM SANT-1, 1 μM RA, 200 nM TPB, 100 nM LDN-193189 for day 1, followed by treatment with tMCDB131supplemented with 1:200 dilution of ITS-X, 2.5 mM Glucose, 1× GLUTAMAX™, 0.0015 g/ml sodium bicarbonate, 2% fatty acid-free BSA, 10 ng/ml Activin A, 25 ng/ml FGF7, 0.25 mM ascorbic acid, 0.25 μMSANT-1, 1 μM RA, 200 nM TPB, 10 nM LDN-193189 for an additional day. • d. […]

For `O=C1O[C@H]([C@@H](O)CO)C(O)=C1O` [ascorbic acid], where the note is “treatment at S5”, the “% Polyhormonal” value is reported as 44% and the “% glucagon + plus % somatostatin+” value is listed as 44%. Besides, the “% single hormonal Insulin+” value (treatment at S5 (0.1 mM ascorbic acid, 50 nM RA, 0.25 μM SANT-1, 1 μM Alk5 inh)) turned out to be 12%.
